Measurements: patent US20080187937A1, “Method For Measuring Dynamics Of Self-Assembling Systems Of Biological Molecules In Vivo And Uses For Discovering Or Evaluating Therapeutic Agents” (priority 2004, published 2008)
Entries after “also recorded” stand apart in the source; their conditions may differ.

Assays:
[1] = tested on: SW1573 human lung cancer cells; assay: 2H2O stable isotope incorporation into tubulin dimers and microtubule polymers in cultured cells; type: cell-based
Method: To determine whether biosynthetic labeling with ^2H2O can reveal MTPA effects on microtubule dynamics in actively proliferating cells, SW1573 human lung cancer cells were cultured and labeled during exponential growth with culture media containing 4% ^2H2O for 2, 6, 12, 24 and 36 hr, respectively. Tubulin dimer and polymer fractions were isolated from post-nuclear supernatants, and tubulin was purified from each fraction to ≧90% purity as determine by SDS-PAGE. After acid hydrolysis, amino acids were derivatized for GC/MS analysis with negative chemical ionization, and ^2H-label incorporation into the alanine derivative was quantified as the increase over natural abundance of the (M+1) mass isotopomer (“^2H—enrichment”; FIG. 3). […] The data support that in actively dividing cells, tubulin dimers and polymers are in a kinetic equilibrium on a time scale of hours. […] This indicates a substantial inhibition of ^2H—tubulin dimer flux into polymer, reflective of the ability of paclitaxel to stabilize microtubules and thus to prevent dynamic instability.

[2] = tested on: SW1573 human lung cancer cells implanted into nude mice; assay: 2H label incorporation into tubulin dimers and polymers in implanted SW1573 tumors in vivo
Method: (§1) The tumors were allowed to grow to approximately 1000 mm^3 […]; mice were then injected intraperitoneally with increasing doses of paclitaxel. ^2H2O (8%) in drinking water was administered for a 24 hr period, resulting in about 5% ^2H enrichment in body water (the balance being metabolic water). Animals were sacrificed 24 hours after drug treatment, and tumor tissue was removed for analysis of ^2H—label incorporation into tubulin dimers and polymers (FIG. 4).

[3] = tested on: MCF-7 human breast cancer cells implanted into nude mice; assay: 2H label incorporation into tubulin dimers and polymers in implanted MCF-7 tumors in vivo
Method: as §1
Qualitatively similar effects of paclitaxel were also seen in implanted MCF-7 tumors, though the amount of ^2H—label incorporation was lower than in SW1573 tumors (FIG. 4B).

[4] = tested on: SW1573 human lung cancer cells implanted into nude mice; assay: Microtubule dynamics compared to de novo DNA synthesis (cell proliferation) in SW1573 tumors; type: in vivo; conditions: varying doses of paclitaxel; 2H2O for 24 hours (FIG. 5A)
Text: (§2) Microtubule dynamics were expressed as (^2H enrichment in polymer)/(^2H enrichment in dimer). Inhibition of de novo DNA synthesis was quantified as the reduction in ^2H label incorporation into tumor cell DNA. […]
(§3) Various factors can interfere with the actions of paclitaxel in tumors, including alterations in tubulin isotype content, efflux pumps, and in vivo drug metabolism. Regardless of these factors, inhibition of microtubule dynamics, if related to the antiproliferative activity of MTPAs in vivo, should correlate with inhibition of cell proliferation. […] Thus, the inhibition of microtubule dynamics appeared to have a measurable impact on and relation to the in vivo antiproliferative action of MTPAs.

[5] = tested on: MCF-7 human breast cancer cells implanted into nude mice; assay: Microtubule dynamics compared to de novo DNA synthesis (cell proliferation) in MCF-7 tumors; type: in vivo; conditions: varying doses of paclitaxel; 2H2O for 24 hours (FIG. 5B)
Text: as §2, §3

microtubules = conditions: fold lower than maximum tolerated therapeutic dose
[6] = tested on: sciatic nerve microtubules; assay: Densitometric analysis of free tubulin and microtubule abundance in sciatic nerve; conditions: tumor-bearing mice (FIG. 6B)
Method: (§4) In order to evaluate neurotoxic effects of paclitaxel, the sciatic nerve was isolated from tumor-bearing mice and ^2H label incorporation into free tubulin was compared with ^2H label incorporation into polymerized microtubuies (FIG. 6). […] To explore this effect further, net changes in the abundance of unpolymerized free tubulin and microtubules was assessed by densitometric analysis (FIG. 6B).

[7] = tested on: sciatic nerve microtubules; assay: Sciatic nerve microtubule dynamics (2H label incorporation into free tubulin and polymerized microtubules); conditions: higher doses of paclitaxel; tumor-bearing mice (FIG. 6A)
Method: as §4

[8] = at ≧5 mg/kg i.p., 2H2O for 24 hours (FIG. 4A)
[9] = increasing doses i.p., 24 hr 2H2O (8%) in drinking water
[10] = at ≧5 mg/kg i.p., 2H2O for 24 hours (FIG. 4B)

CC(=O)O[C@H]1C(=O)[C@@]2(C)[C@H]([C@H](OC(=O)c3ccccc3)[C@]3(O)C[C@H](OC(=O)[C@H](O)[C@@H](NC(=O)c4ccccc4)c4ccccc4)C(C)=C1C3(C)C)[C@]1(OC(C)=O)CO[C@@H]1C[C@@H]2O [paclitaxel]
2H-enrichment in labeled polymers ([1]; 0.4 µM paclitaxel, 4% 2H2O, 36 hours (FIG. 3B)): reduced ^2H-enrichment in labeled polymers
reduction of rate of 2H incorporation into polymers compared to rate of label incorporation into the dimer ([1]; media containing 4% 2H2O, up to 36 hr): 75%
de novo synthesis of tubulin dimer [2, 8]: increased de novo synthesis of tubulin dimer
label incorporation into polymer [2, 8]: inhibited label incorporation into polymer
fractional synthesis of tubulin dimers [2, 9]: fractional synthesis of tubulin dimers increased
incorporation of 2H-tubulin into microtubules [2, 9]: decreased incorporation of ^2H—tubulin into microtubules in a dose-dependent manner
paclitaxel-dependent reduction of 2H-label polymer ([3]; 5 and 10 mg/kg doses, compared with SW1573 tumors): less pronounced, albeit statistically significant
de novo synthesis of tubulin dimer [3, 10]: increased de novo synthesis of tubulin dimer
label incorporation into polymer [3, 10]: inhibited label incorporation into polymer
upregulation of tubulin fractional synthesis over baseline ([3]; increasing doses i.p., 24 hr 2H2O): no significant paclitaxel-induced upregulation of tubulin fractional synthesis over baseline
relation between inhibition of microtubule dynamics and inhibition of de novo DNA synthesis (tumor cell proliferation) [4]: strong relationship; also recorded: strong correlation between inhibition of microtubule dynamic instability and reduction in cell proliferation
relation between inhibition of microtubule dynamics and inhibition of de novo DNA synthesis (tumor cell proliferation) [5]: strong relationship; also recorded: strong correlation between inhibition of microtubule dynamics and reduction in cell proliferation
doses with significant effects on microtubule dynamics, relative to the maximum tolerated therapeutic dose (microtubules): up to 30 fold
amount of free tubulin dimers (sciatic nerve, densitometry) [6]: slight decrease in free tubulin dimers
2H label incorporation into polymers (sciatic nerve) [7]: increased the label incorporation into polymers
2H labeling of free tubulin (sciatic nerve) [7]: slightly decreasing labeling of free tubulin
